Literature values, collected in patent US20030064123A1, “DHEA supplement for increasing women's libido” (priority 2001, published 2003).

Experiments:
[1] = post-menopausal women, oral DHEA 25 mg/day, after six months
[2] = system: ventrobasal complex of the thalamus; conditions: rat
[3] = system: androgen-deficient female patients; conditions: testosterone injections

In the case of `C[C@]12CC[C@H](O)CC1=CC[C@@H]1[C@@H]2CC[C@]2(C)C(=O)CC[C@@H]12` [DHEA, Dihydroepiandosterone], the estrogen levels [1] is given as “returned to premenopausal levels” and the testosterone levels [1] is given as “returned to premenopausal levels”.

In the case of `N=C(N)NCCC[C@H](N)C(=O)O` [L-arginine], the “excitatory amino acid responses and sonato sensory transmission” value [2] is given as “enhancement”.

For `C[C@]12CC[C@H]3[C@@H](CCC4=CC(=O)CC[C@@]43C)[C@@H]1CC[C@@H]2O` [testosterone], the “libido and ability to become aroused and achieve a satisfactory orgasm” value [3] is given as “resolved”.
